Consider one compound from patent publication US6867225B2, “Thiazole or oxazole derivatives which are useful in the treatment of cardiovascular and related diseases” (SmithKline Beecham Corporation, priority 2001, dated 2005).

As a reminder, the EC50 is the concentration needed to bring the measured effect to its halfway point.

What all share (test): Transient transfection (transactivation) assay in CV-1 cells, GAL4 chimera, SPAP reporter
Format in all cases: cell-based

For one test, the target named is T1, hPPAR γ (Homo sapiens, UniProt P37231).
T1 construct: expressed in transfected cells; host or cells: CV-1 cells
T1 sequence (P37231 238-503 limits assumed): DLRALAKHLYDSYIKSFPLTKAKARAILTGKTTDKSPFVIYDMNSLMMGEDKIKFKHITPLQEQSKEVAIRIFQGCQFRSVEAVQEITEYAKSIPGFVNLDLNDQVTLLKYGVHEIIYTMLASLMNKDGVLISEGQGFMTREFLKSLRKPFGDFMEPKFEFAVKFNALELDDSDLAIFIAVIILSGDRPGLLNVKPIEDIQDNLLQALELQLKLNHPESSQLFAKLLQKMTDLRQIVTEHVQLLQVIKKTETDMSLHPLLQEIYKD
The text has this:
(§1) Compounds were screened for functional potency in transient transfection assays in CV-1 cells for their ability to activate the PPAR subtypes (transactivation assay). A previously established chimeric receptor system was utilized to allow comparison of the relative transcriptional activity of the receptor subtypes on the same target gene and to prevent endogenous receptor activation from complicating the interpretation of results. See, for example, Lehmann, J. M.; Moore, L. B.; Smith-Oliver, Oliver T. A.; Wilkison, W. O.; Willson, T. M.; Kliewer, S. A., An antidiabetic thiazolidinedione is a high affinity ligand for peroxisome proliferator-activated receptor gamma (PPAR gamma), J. Biol. Chem., 1995, 270, 12953-6. The ligand binding domains for murine and human PPAR alpha, PPAR gamma, and PPAR delta were each fused to the yeast transcription factor GAL4 DNA binding domain. CV-1 cells were transiently transfected with expression vectors for the respective PPAR chimera along with a reporter construct containing five copies of the GAL4 DNA binding site driving expression of secreted placental alkaline phosphatase (SPAP) and β-galactosidase. After 16 h, the medium was exchanged to DME medium supplemented with 10% delipidated fetal calf serum and the test compound at the appropriate concentration. After an additional 24 h, cell extracts were prepared and assayed for alkaline phosphatase and β-galactosidase activity. Alkaline phosphatase activity was corrected for transfection efficiency using the β-galactosidase activity as an internal standard (see, for example, Kliewer, S. A., et. al. Cell 83, 813-819 (1995)). Rosiglitazone (BRL 49653) was used as a positive control in the hPPAR gamma assay. The positive control in the hPPAR alpha assays was 2-(2-methyl-3-[3-{3-(4-cyclohexylamino)[6-(4-fluorophenylpiperazin-1-yl)][1,3,5]triazin-2-ylamino}propyl]phenylthio)-2-methylpropionic acid. The positive control for PPAR delta assays was 2-{2-methyl-4-[({4-methyl-2-{-{trifluoromethyl)phenyl]-1,3-thiazol-5-yl}methyl)sulfanyl]phenoxy}acetic acid.

Another test deals with T2, hPPAR δ (Homo sapiens, UniProt Q03181).
T2 construct: expressed in transfected cells; host or cells: CV-1 cells
T2 sequence (Q03181 211-439 limits assumed): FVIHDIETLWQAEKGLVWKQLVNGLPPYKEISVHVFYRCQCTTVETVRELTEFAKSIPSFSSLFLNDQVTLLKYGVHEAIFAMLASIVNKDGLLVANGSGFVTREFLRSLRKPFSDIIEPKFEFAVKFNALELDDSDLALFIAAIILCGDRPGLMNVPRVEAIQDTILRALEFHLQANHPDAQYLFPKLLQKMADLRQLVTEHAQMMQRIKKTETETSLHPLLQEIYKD
From the text: as §1

Another test has as its target T3, hPPAR α (Homo sapiens, UniProt Q07869).
T3 construct: expressed in transfected cells; host or cells: CV-1 cells
T3 sequence (Q07869 239-466 limits assumed): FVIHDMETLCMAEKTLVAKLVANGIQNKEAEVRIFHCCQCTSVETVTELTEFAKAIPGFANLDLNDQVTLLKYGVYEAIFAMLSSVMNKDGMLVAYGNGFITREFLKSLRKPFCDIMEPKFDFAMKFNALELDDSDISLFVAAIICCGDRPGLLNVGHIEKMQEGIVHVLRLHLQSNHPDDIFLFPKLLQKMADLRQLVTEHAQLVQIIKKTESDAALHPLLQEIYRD
From the text: as §1

For `Cc1nc(-c2ccc(C(F)(F)F)cc2)sc1C(=O)NC1CCCc2cc(OC(C)(C)C(=O)O)ccc21` (stereo not drawn) [Example 4], the EC50 worked out at 2220 nM on hPPAR γ, 8600 nM on hPPAR δ and 10 nM on hPPAR α.
